According to patent publication US5506262A, “Cholesterol lowering compounds” (Merck & Co., Inc., priority 1993, dated 1996):
Converted amounts (≈) assume the structure as drawn.

Legend:
[1] = target: T1, Farnesyl-protein transferase (Ftase) (Bos taurus, UniProt P29702+P49355); experiment: RASIT ASSAY I: inhibition of Ras farnesylation in vitro; assay type: biochemical, bovine; conditions: Ras-CVLS 3.5 μM, 0.25 μM [3H]FPP
T1 construct: Farnesyl-protein transferase (Ftase) from bovine brain was chromatographed on DEAE-Sephacel; from tissue; host or cells: bovine brain, partially purified (DEAE-Sephacel, N-octyl agarose, mono Q)
Procedure: (§1) The intrinsic farnesyl-protein transferase (FTase) activity of representative compounds of this invention was measured by the assays described below:
(§2) Farnesyl-protein transferase (Ftase) from bovine brain was chromatographed on DEAE-Sephacel (Pharmacia, 0-0.8M NaCl gradient elution), N-octyl agarose (Sigma, 0-0.6M Nacl gradient elution), and a mono Q HPLC column (Pharmacia, 0-0.3M NaCl gradient). Ras-CVLS at 3.5 μM, 0.25 μM [^3 H]FPP, and the indicated compounds were incubated with this partially purified enzyme preparation. The Ftase data presented below is a measurement of the ability of the test compound to inhibit Ras farnesylation in vitro.
(§3) Table 8 lists IC50 data which is representative of the intrinsic Ras inhibitory activity of the compounds of this invention. Data of representative compounds from each embodiment and class of the invention is provided. When an inhibitory value is not provided for a given assay, the compound was not tested in that protocol.

[2] = target: T1, Farnesyl-protein transferase (Ftase); experiment: RASIT ASSAY II: inhibition of Ras farnesylation in vitro; assay type: biochemical, bovine; conditions: Ras-CVLS 1.0 μM, 0.5 μM [3H]FPP
Procedure: as §1
as §2, with “1.0” for “3.5”, “0.5” for “0.25”
as §3

[3] = system: C. parapsilosis MY1010; experiment: Antifungal MIC, microtiter dilution assay; assay type: cell-based; conditions: Lodderomyces parapsilosis, 24 to 48 hours, 35° C., read-out: Minimum Inhibitory Concentration
Procedure: (§4) The compounds are particularly active towards filamentous fungi and yeasts including Candida albicans and Cryptococcus neoformans. The sensitivity of filamentous fungi and yeast was determined using inhibitor dilution assays in microtiter format. The compounds were dissolved in DMSO at 2 mg/ml and serially diluted in 0.1M phosphate buffer, pH 7.0 in the microtiter dish from 100 to 0.006 μg/ml. A standardized spore suspension for testing the filamentous fungi was prepared by inoculating Antibiotic Medium #3 containing 1.5% agar with spores such that 1.5×10^3 colony forming units were added per well. The microtiter wells were filled with 50 μl of buffer containing compound and 50 μl of inoculated medium.
(§5) The sensitivity of yeasts was determined by inoculating yeast nitrogen base containing 1% dextrose (YNB/G) with aliquots of an overnight yeast culture grown in Yeast Morphology (YM) media at 35° C. and diluting in YNB/G to yield a final concentration of 1.5-7.5×10^3 colony forming units/well. To test the sensitivity of yeast, compound was solubilized in 10 percent aqueous DMSO at 2.56 mg/ml. The compound was diluted serially in YNB/G from 128 to 0.06 μg/ml and further diluted 1:10 in YNB/G. The wells were filled with 150 μl of media containing drug. […] Representative of the antifungal activity are the minimum inhibitory concentration data shown below for representative compounds from the various embodiments and classes described hereinabove.

[4] = system: Aspergillus flavus MF383; experiment: Antifungal MIC, microtiter dilution assay; assay type: cell-based; conditions: 42 hours, 28° C., read-out: Minimum Inhibitory Concentration
Procedure: as §4, §5

[5] = system: Crypt. neoformans MY1051; experiment: Antifungal MIC, microtiter dilution assay; assay type: cell-based; conditions: Cryptococcus neoformans, 24 to 48 hours, 35° C., read-out: Minimum Inhibitory Concentration
Procedure: as §4, §5

[6] = system: C. tropicalis MY1012; experiment: Antifungal MIC, microtiter dilution assay; assay type: cell-based; conditions: Candida tropicalis, 24 to 48 hours, 35° C., read-out: Minimum Inhibitory Concentration
Procedure: as §4, §5

[7] = system: Candida albicans MY1055; experiment: Antifungal MIC, microtiter dilution assay; assay type: cell-based; conditions: 24 to 48 hours, 35° C., read-out: Minimum Inhibitory Concentration
Procedure: as §4, §5

| IC50 [1] [nM] | IC50 [2] [nM] | MIC [3] [µg/mL] | MIC [4] [µg/mL] | MIC [5] [µg/mL] | MIC [6] [µg/mL] | MIC [7] [µg/mL] | Structure (SMILES) |
| --- | --- | --- | --- | --- | --- | --- | --- |
| 120 | 19 | – | – | – | – | – | CC[C@H](C)C[C@H](C)/C=C/C(=O)O[C@@H]1[C@@H](O)[C@@]2(CCCOC(=O)CCCc3ccccc3)O[C@H](C(=O)O)[C@@](O)(C(=O)O)[C@]1(C(=O)O)O2 [Compound 39e, 39-4-phenylbutyrate ester] |
| 500 | 27 | – | – | – | – | – | C=C(CC[C@]12O[C@H](C(=O)O)[C@@](O)(C(=O)O)[C@](C(=O)O)(O1)[C@H](OC(=O)NCCCCCCCCCCCOc1ccccc1)[C@H]2O)[C@@H](OC(C)=O)[C@H](C)Cc1ccccc1 [Compound 5u] |
| – | – | 32 (≈ 41.7 µM) | 2 (≈ 2.6 µM) | 0.25 (≈ 0.326 µM) | 8 (≈ 10.4 µM) | 16 (≈ 20.8 µM) | C=C(CC[C@]12O[C@H](C(=O)Nc3ccncn3)[C@@](O)(C(=O)O)[C@](C(=O)O)(O1)[C@H](OC(=O)/C=C/[C@@H](C)C[C@@H](C)CC)[C@H]2O)[C@@H](OC(C)=O)[C@H](C)Cc1ccccc1 [Compound 12n, IA-3-(4-amidopyrimidine)] |
| – | – | 1 (≈ 1.2 µM) | 1 (≈ 1.2 µM) | 0.25 (≈ 0.301 µM) | 128 (≈ 154 µM) | 8 (≈ 9.63 µM) | C=C(CC[C@]12O[C@H](C(=O)O)[C@@](O)(C(=O)O)[C@](C(=O)O)(O1)[C@H](OCCCCCCCCCCOc1ccc(OC)c(OC)c1)[C@H]2O)[C@@H](OC(C)=O)[C@H](C)Cc1ccccc1 [5q"'] |
| – | – | > 128 | 0.5 (≈ 0.681 µM) | > 128 | 0.5 (≈ 0.681 µM) | 8 (≈ 10.9 µM) | C=C(CC[C@]12O[C@H](C(=O)O)[C@@](O)(C(=O)O)[C@](C(=O)O)(O1)[C@H](OC(=O)Nc1ccc(-c3ccccc3)cc1)[C@H]2O)[C@@H](OC(C)=O)[C@H](C)Cc1ccccc1 [Compound 5t] |
| – | – | 8 (≈ 11.6 µM) | 2 (≈ 2.9 µM) | 1 (≈ 1.45 µM) | 2 (≈ 2.9 µM) | 8 (≈ 11.6 µM) | C=C(CC[C@]12O[C@H](C(N)=O)[C@@](O)(C(=O)O)[C@](C(=O)O)(O1)[C@H](OC(=O)/C=C/[C@@H](C)C[C@@H](C)CC)[C@H]2O)[C@@H](OC(C)=O)[C@H](C)Cc1ccccc1 [Compound 12a, IA-3-carboxamide] |
| 1700 | 52 | – | – | – | – | – | C=C(CC[C@]12O[C@H](C(=O)O)[C@@](O)(C(=O)O)[C@](C(=O)O)(O1)[C@H](OC(=O)/C=C/[C@@H](C)C[C@@H](C)CC)[C@H]2O)[C@@H](OC(=O)c1ccccc1)[C@H](C)Cc1ccccc1 [Compound 7d] |
| 500 | 27 | – | – | – | – | – | C=C(CC[C@]12O[C@H](C(=O)O)[C@@](O)(C(=O)O)[C@](C(=O)O)(O1)[C@H](OC(=O)OCCCCCCCCCCCOc1ccccc1)[C@H]2O)[C@@H](OC(C)=O)[C@H](C)Cc1ccccc1 [Compound 5y] |
| 4000 | – | 16 (≈ 22.7 µM) | 4 (≈ 5.68 µM) | 1 (≈ 1.42 µM) | 1 (≈ 1.42 µM) | 4 (≈ 5.68 µM) | C=C(CC[C@]12O[C@H](C(=O)O)[C@@](O)(C(=O)O)[C@](C(=O)O)(O1)[C@H](OC(=O)/C=C/[C@@H](C)C[C@@H](C)CC)[C@H]2OC)[C@@H](OC(C)=O)[C@H](C)Cc1ccccc1 [5n'] |
| – | – | > 128 | – | 32 (≈ 47.6 µM) | > 128 | 1 (≈ 1.49 µM) | C=C(CC[C@]12O[C@H](C(=O)O)[C@@](O)(C(=O)O)[C@](C(=O)O)(O1)[C@H](OC(=O)NCc1ccccc1)[C@H]2O)[C@@H](OC(C)=O)[C@H](C)Cc1ccccc1 [Compound 5s] |
| – | – | 2 (≈ 2.78 µM) | 2 (≈ 2.78 µM) | 0.5 (≈ 0.696 µM) | 2 (≈ 2.78 µM) | 2 (≈ 2.78 µM) | C=C(CC[C@]12O[C@H](C(=O)O)[C@@](O)(C(=O)O)[C@](C(=O)O)(O1)[C@H](OC(=O)/C=C/[C@@H](C)C[C@@H](C)CC)[C@H]2O)[C@@H](OC(=O)CCC)[C@H](C)Cc1ccccc1 [Compound 7b, IA-Cl(4')-Butanoyl tri-acid] |
| – | – | > 128 | 4 (≈ 6.28 µM) | 2 (≈ 3.14 µM) | 8 (≈ 12.6 µM) | 8 (≈ 12.6 µM) | CC[C@H](C)C[C@H](C)CCC(=O)O[C@@H]1[C@@H](O)[C@@]2(CCC(C)C[C@H](C)Cc3ccccc3)O[C@H](C(=O)O)[C@@](O)(C(=O)O)[C@]1(C(=O)O)O2 (stereo partly drawn) [Compound 25b, (1S,3S,4S, 5R,6R,7R)-1-[3,5(R)-dimethyl-6-phenyl]hexyl-4,6,7trihydroxy-6-O-(4(S),6(S)-dimethyl-2-octanoyl)-2,8-dioxabicyclo[3.2.1]octane-3,4,5-tricarboxylic acid] |

| Structure (SMILES) | IC50 [1] [nM] | IC50 [2] [nM] | MIC [3] [µg/mL] | MIC [4] [µg/mL] | MIC [5] [µg/mL] | MIC [6] [µg/mL] | MIC [7] [µg/mL] |
| --- | --- | --- | --- | --- | --- | --- | --- |
| CC[C@H](C)C[C@H](C)CCC(=O)O[C@@H]1[C@@H](O)[C@@]2(CCC(C)[C@@H](OC(C)=O)[C@H](C)Cc3ccccc3)O[C@H](C(=O)O)[C@@](O)(C(=O)O)[C@]1(C(=O)O)O2 (stereo partly drawn) [Compound 24b, (1S,3S,4S,5R,6R,7R)-1-[(4S)-acetoxy-3,5(R)-dimethyl-6-phenyl]hexyl-4,6,7-trihydroxy-6-O-(4(S),6(S)-dimethyl-2-octanoyl)-2,8-dioxabicyclo-[3,2,1]octane-3,4,5-tricarboxylic acid] | 1300 | – | – | – | – | – | – |
